Where a name gives a salt, the structure may show the parent alone.

The results in this text go back to US20230146395A1, “Substituted Pyrimidines and Uses Thereof” (Verge Analytics, Inc., priority 2020, published 2023).

The target in this assay is T1, Full length human recombinant PIKFYVE (Homo sapiens, UniProt Q9Y2I7).
T1 construct: Full length human recombinant PIKFYVE; purchased Carna Biosciences (Kobe, Japan); host or cells: baculovirus expression system
T1 sequence (Q9Y2I7 whole entry): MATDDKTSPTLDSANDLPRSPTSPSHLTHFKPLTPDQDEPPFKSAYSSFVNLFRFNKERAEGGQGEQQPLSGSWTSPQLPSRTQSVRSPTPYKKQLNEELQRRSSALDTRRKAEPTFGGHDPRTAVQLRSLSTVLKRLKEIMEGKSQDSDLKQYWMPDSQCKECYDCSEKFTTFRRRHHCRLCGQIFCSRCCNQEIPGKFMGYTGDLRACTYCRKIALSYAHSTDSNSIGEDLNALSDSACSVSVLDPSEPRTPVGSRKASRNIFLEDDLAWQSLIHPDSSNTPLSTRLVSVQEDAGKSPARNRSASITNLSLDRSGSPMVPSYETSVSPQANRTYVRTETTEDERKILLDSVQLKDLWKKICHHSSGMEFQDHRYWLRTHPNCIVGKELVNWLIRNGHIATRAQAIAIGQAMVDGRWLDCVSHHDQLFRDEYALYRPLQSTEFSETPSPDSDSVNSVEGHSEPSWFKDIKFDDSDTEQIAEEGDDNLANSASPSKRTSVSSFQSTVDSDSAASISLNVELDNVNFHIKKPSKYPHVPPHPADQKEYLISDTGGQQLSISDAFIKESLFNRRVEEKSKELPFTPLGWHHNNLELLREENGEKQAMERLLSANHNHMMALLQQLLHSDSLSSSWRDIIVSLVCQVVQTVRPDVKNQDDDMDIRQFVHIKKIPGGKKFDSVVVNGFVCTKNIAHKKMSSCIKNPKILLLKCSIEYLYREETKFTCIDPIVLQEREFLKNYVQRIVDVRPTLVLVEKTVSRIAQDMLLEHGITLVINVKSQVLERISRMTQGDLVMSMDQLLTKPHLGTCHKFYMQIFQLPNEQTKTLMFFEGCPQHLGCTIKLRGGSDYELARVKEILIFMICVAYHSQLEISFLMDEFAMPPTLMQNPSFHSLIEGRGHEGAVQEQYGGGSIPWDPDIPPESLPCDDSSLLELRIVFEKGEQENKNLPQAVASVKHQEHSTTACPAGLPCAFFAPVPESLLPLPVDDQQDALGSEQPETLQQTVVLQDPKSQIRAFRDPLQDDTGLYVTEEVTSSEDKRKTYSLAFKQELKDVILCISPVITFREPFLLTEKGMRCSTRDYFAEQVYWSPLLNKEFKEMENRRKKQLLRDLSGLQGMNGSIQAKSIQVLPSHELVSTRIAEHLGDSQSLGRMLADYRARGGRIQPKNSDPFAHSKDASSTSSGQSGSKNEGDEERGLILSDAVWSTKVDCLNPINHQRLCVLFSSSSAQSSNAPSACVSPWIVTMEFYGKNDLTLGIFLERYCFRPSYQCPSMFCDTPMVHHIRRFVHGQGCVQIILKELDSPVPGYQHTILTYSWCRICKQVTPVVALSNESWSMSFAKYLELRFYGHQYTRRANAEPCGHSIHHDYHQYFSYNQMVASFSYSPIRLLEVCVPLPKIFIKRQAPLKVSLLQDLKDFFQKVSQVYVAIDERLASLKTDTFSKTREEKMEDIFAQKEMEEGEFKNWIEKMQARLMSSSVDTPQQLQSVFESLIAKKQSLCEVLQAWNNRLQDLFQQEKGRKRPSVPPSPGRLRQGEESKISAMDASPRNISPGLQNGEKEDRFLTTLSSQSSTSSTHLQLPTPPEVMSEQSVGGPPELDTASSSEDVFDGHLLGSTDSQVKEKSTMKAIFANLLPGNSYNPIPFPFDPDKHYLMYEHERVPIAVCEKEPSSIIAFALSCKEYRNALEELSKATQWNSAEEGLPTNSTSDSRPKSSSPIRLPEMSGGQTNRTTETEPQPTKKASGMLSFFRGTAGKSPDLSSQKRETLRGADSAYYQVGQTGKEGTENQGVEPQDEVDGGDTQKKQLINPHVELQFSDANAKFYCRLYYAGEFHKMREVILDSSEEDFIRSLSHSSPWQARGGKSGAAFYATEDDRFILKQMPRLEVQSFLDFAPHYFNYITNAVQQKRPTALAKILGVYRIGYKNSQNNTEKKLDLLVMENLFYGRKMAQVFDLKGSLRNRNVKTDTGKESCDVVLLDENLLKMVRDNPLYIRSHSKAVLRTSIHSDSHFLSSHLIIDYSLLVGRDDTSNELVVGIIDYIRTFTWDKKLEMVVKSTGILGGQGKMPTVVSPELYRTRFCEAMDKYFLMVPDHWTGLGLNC
Briefly: Inhibition of PIKfyve (microfluidic electrophoresis kinase assay, PI3P/PS substrate). Format: biochemical. The conditions noted are these: 12 concentrations. In outline:
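GST-tagged full-length human PIKFYVE (baculovirus; 2 nM) with fluorescent PI3P/PS (1 μM PI3P) and […] in pH 7.5 HEPES with Mg2+/Mn2+, 1% DMSO, 3 h at room temperature. PI(3,5)P product/substrate ratio read by microfluidic electrophoresis; 12-point % inhibition versus no-enzyme and DMSO controls.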
As for `O=C(c1cc2nc(Nc3cc(-c4ccccc4)n[nH]3)nc(N3CCOCC3)c2o1)N1CCCCC1` [Compound 55, (4-morpholino-2-((3-phenyl-1H-pyrazol-5-yl)amino)furo[3,2-d]pyrimidin-6-yl)(piperidin-1-yl)methanone hydrochloride], the IC50 (as a rule, the point on the concentration scale where inhibition reaches its midpoint) was 51 nM.

On to `CN(C)CCCCNC(=O)c1cc2nc(-n3cc(-c4ccccc4)cn3)nc(N3CCOCC3)c2o1` [Compound 167], for which the half-maximal inhibitory concentration (IC50) is 122 nM. Turning to `COc1cccc(-c2ccn(-c3nc(N4CCOCC4)c4oc(-c5ccccn5)cc4n3)n2)c1` [Compound 199, 2-[3-(3-methoxyphenyl)pyrazol-1-yl]-4-morpholino-6-(2-pyridyl)furo[3,2-d]pyrimidine], the half-maximal inhibitory concentration (IC50) was 36.8 nM.

As for `CN1CCN(C(=O)c2cc3nc(Nc4cc(-c5ccccc5)[nH]n4)nc(N4CCOCC4)c3o2)CC1` [Compound 136, (4-methylpiperazin-1-yl)(4-morpholino-2-((5-phenyl-1H-pyrazol-3-yl)amino)furo[3,2-d]pyrimidin-6-yl)methanone], the 50% inhibitory concentration (IC50) was determined as 94 nM. For the molecule `Cc1cccc(-c2cnn(-c3nc(N4CCOCC4)c4oc(-c5ccncc5)cc4n3)c2)c1` [Compound 42, 4-morpholino-6-(pyridin-4-yl)-2-(4-(m-tolyl)-1H-pyrazol-1-yl)furo[3,2-d]pyrimidine], the IC50 came out at 9 nM. Regarding `[2H]C([2H])([2H])c1cccc(-c2ccn(-c3nc(N4CCOCC4)c4oc(-c5ccn(C)n5)cc4n3)n2)c1` [Compound 216, 6-(1-methylpyrazol-3-yl)-4-morpholino-2-[3-[3-(trideuteriomethyl)phenyl]pyrazol-1-yl]furo[3,2-d]pyrimidine], the IC50 stood at 0.8 nM. Regarding `O=C(NC1CCOC1)c1cc2nc(-n3cc(-c4ccccc4)cn3)nc(N3CCOCC3)c2o1` (centres unmarked) [Compound 172, 4-morpholino-2-(4-phenylpyrazol-1-yl)-N-tetrahydrofuran-3-yl-furo[3,2-d]pyrimidine-6-carboxamide], the IC50 stood at 37.8 nM.

With `Cc1cccc(-c2ccn(-c3nc(N4CCOCC4)c4oc(-c5cc(C)n(CCN(C)C)n5)cc4n3)n2)c1` [Compound 178, N,N-dimethyl-2-[5-methyl-3-[4-morpholino-2-[3-(m-tolyl)pyrazol-1-yl]furo[3,2-d]pyrimidin-6-yl]pyrazol-1-yl]ethanamine], the IC50 was 0.9 nM.

Consider `Cc1cc(-c2cc3nc(-n4ccc(-c5ccccc5)n4)nc(N4CCOCC4)c3o2)nn1CCN(C)C` [Compound 177, N,N-dimethyl-2-[5-methyl-3-[4-morpholino-2-(3-phenylpyrazol-1-yl)furo[3,2-d]pyrimidin-6-yl]pyrazol-1-yl]ethanamine], for which the 50% inhibitory concentration (IC50) was found to be 41.3 nM. On to `COCCNC(=O)c1cc2nc(-n3cc(-c4ccccc4)cn3)nc(N3CCOCC3)c2o1` [Compound 118, N-(2-methoxyethyl)-4-morpholino-2-(4-phenyl-1H-pyrazol-1-yl)furo[3,2-d]pyrimidine-6-carboxamide], for which the half-inhibitory concentration (IC50) worked out at 311 nM. For `CN1CCC(c2cc3nc(Nc4cc(-c5ccncc5)n[nH]4)nc(N4CCOCC4)c3o2)C1` (centres unmarked) [Compound 40], the IC50 was 2570 nM. On to `c1ccc(-c2ccn(-c3nc(N4CCOCC4)c4oc(-c5nccs5)cc4n3)n2)cc1` [Compound 207, 4-morpholino-2-(3-phenylpyrazol-1-yl)-6-thiazol-2-yl-furo[3,2-d]pyrimidine], for which the IC50 worked out at 6.6 nM. To `O=C(NC1COC1)c1cc2nc(-n3cc(-c4ccccc4)cn3)nc(N3CCOCC3)c2o1` [Compound 174, 4-morpholino-N-(oxetan-3-yl)-2-(4-phenylpyrazol-1-yl)furo[3,2-d]pyrimidine-6-carboxamide] belongs 531 nM; to `CCNC(=O)c1cc2nc(-n3ccc(-c4ccccc4)n3)nc(N3CCOCC3)c2o1` [Compound 152, N-ethyl-4-morpholino-2-(3-phenyl-1H-pyrazol-1-yl)furo[3,2-d]pyrimidine-6-carboxamide], 306 nM; to `Cc1cccc(-c2ccn(-c3nc(N4CCOCC4)c4oc(-c5cc(C)n[nH]5)cc4n3)n2)c1` [Compound 173, 6-(3-methyl-1H-pyrazol-5-yl)-4-morpholino-2-[3-(m-tolyl)pyrazol-1-yl]furo[3,2-d]pyrimidine], 0.6 nM. For `Cc1cccc(-c2cc(Nc3nc(N4CCOCC4)c4oc(C5CCCN(C)C5)cc4n3)[nH]n2)c1` (centres unmarked) [Compound 36], the IC50 turned out to be 37 nM. Take `Cc1cccc(-c2ccn(-c3nc(N4CCOCC4)c4oc(-c5ccccn5)cc4n3)n2)n1` [Compound 187, 2-[3-(6-methyl-2-pyridyl)pyrazol-1-yl]-4-morpholino-6-(2-pyridyl)furo[3,2-d]pyrimidine]: the IC50 was 2390 nM.

On to `Cc1ccc(-c2cc(Nc3nc(N4CCOCC4)c4oc(-c5ccncc5)cc4n3)[nH]n2)cc1` [Compound 4, 4-morpholino-N-[5-(p-tolyl)-1H-pyrazol-3-yl]-6-(4-pyridyl)furo[3,2-d]pyrimidin-2-amine, hydrogen chloride], for which the 50% inhibitory concentration (IC50) is 30.9 nM. For `Cc1cccc(-c2cnn(-c3nc(N4CCOCC4)c4oc(C(=O)NCCS(C)(=O)=O)cc4n3)c2)c1` [Compound 150, N-(2-(methylsulfonyl)ethyl)-4-morpholino-2-(4-(m-tolyl)-1H-pyrazol-1-yl)furo[3,2-d]pyrimidine-6-carboxamide], the 50% inhibitory concentration (IC50) amounted to 103 nM.

In the case of `Cc1cccc(-c2ccn(-c3nc(N4CCOCC4)c4oc(-c5ncco5)cc4n3)n2)c1` [Compound 218, 4-morpholino-2-[3-(m-tolyl)pyrazol-1-yl]-6-oxazol-2-yl-furo[3,2-d]pyrimidine], the IC50 was 9.1 nM.

Turning to `Cc1cncc(-c2ccn(-c3nc(N4CCOCC4)c4oc(-c5ccccn5)cc4n3)n2)c1` [Compound 200, 2-[3-(5-methyl-3-pyridyl)pyrazol-1-yl]-4-morpholino-6-(2-pyridyl)furo[3,2-d]pyrimidine], the IC50 came to 3080 nM. As for `C[C@@H](NC(=O)c1cc2nc(Nc3cc(-c4ccccc4)n[nH]3)nc(N3CCOCC3)c2o1)C1CC1` [Compound 64, (R)—N-(1-cyclopropylethyl)-4-morpholino-2-((5-phenyl-1H-pyrazol-3-yl)amino)furo[3,2-d]pyrimidine-6-carboxamide hydrochloride], the figure is 0.9 nM; as for `FC(F)(F)c1cc(Nc2nc(N3CCOCC3)c3oc(-c4ccncc4)cc3n2)[nH]n1` [Compound 72, 4-morpholino-6-(pyridin-4-yl)-N-(5-(trifluoromethyl)-1H-pyrazol-3-yl)furo[3,2-d]pyrimidin-2-amine, hydrogen chloride], 552 nM. To `Cc1cccc(-c2cnn(-c3nc(N4CCOCC4)c4oc(C(=O)NCCS(=O)(=O)N(C)C)cc4n3)c2)c1` [Compound 128, N-(2-(N,N-dimethylsulfamoyl)ethyl)-4-morpholino-2-(4-(m-tolyl)-1H-pyrazol-1-yl)furo[3,2-d]pyrimidine-6-carboxamide] belongs 66.2 nM; to `Cc1cccc(-c2cnn(-c3nc(N4CCOCC4)c4oc(C(=O)NC5CC5)c(C(F)(F)F)c4n3)c2)c1` [Compound 147, N-cyclopropyl-4-morpholino-2-(4-(m-tolyl)-1H-pyrazol-1-yl)-7-(trifluoromethyl)furo[3,2-d]pyrimidine-6-carboxamide], 1030 nM; to `CN1CCC(NC(=O)c2cc3nc(-n4cc(-c5ccccc5)cn4)nc(N4CCOCC4)c3o2)CC1` [Compound 157, N-(1-methylpiperidin-4-yl)-4-morpholino-2-(4-phenyl-1H-pyrazol-1-yl)furo[3,2-d]pyrimidine-6-carboxamide], 88.8 nM. As for `O=C(NC1CCOCC1)c1cc2nc(-n3ccc(-c4cccc(Br)c4)n3)nc(N3CCOCC3)c2o1` [Compound 220, 2-[3-(3-bromophenyl)pyrazol-1-yl]-4-morpholino-N-tetrahydropyran-4-yl-furo[3,2-d]pyrimidine-6-carboxamide], the half-inhibitory concentration (IC50) came out at 16.3 nM. Take `c1cc(-c2cc3nc(Nc4cc(C5CC5)n[nH]4)nc(N4CCOCC4)c3o2)ccn1` [Compound 68, N-(5-cyclopropyl-1H-pyrazol-3-yl)-4-morpholino-6-(pyridin-4-yl)furo[3,2-d]pyrimidin-2-amine, hydrogen chloride]: the IC50 was 185 nM.

As to `Cn1ccc(-c2cc3nc(-n4cc(-c5cccc(Cl)c5)cn4)nc(N4CCOCC4)c3o2)n1` [Compound 192, 2-(4-(3-chlorophenyl)-1H-pyrazol-1-yl)-6-(1-methyl-1H-pyrazol-3-yl)-4-morpholinofuro[3,2-d]pyrimidine], the IC50 was 21.7 nM. As to `c1cncc(-c2cc3nc(Nc4cc(-c5ccncc5)n[nH]4)nc(N4CCOCC4)c3o2)c1` [Compound 31, 4-morpholino-6-(3-pyridyl)-N-[5-(4-pyridyl)-1H-pyrazol-3-yl]furo[3,2-d]pyrimidin-2-amine, hydrogen chloride], the IC50 was 369 nM. `O=C(c1cc2nc(Nc3cc(-c4ccccc4)[nH]n3)nc(N3CCOCC3)c2o1)N1CCCC1` [Compound 54, [4-morpholino-2-[(5-phenyl-1H-pyrazol-3-yl)amino]furo[3,2-d]pyrimidin-6-yl]-pyrrolidin-1-yl-methanone; hydrogen chloride]: the half-inhibitory concentration (IC50) was 66 nM.

For `c1ccc2c(Nc3nc(N4CCOCC4)c4oc(-c5ccncc5)cc4n3)n[nH]c2c1` [Compound 50, N-(1H-indazol-3-yl)-4-morpholino-6-(pyridin-4-yl)furo[3,2-d]pyrimidin-2-amine hydrochloride], the IC50 is 835 nM. Turning to `Cc1cccc(-c2cc(Nc3nc(N4CCOCC4)c4oc(C5CCN(C)CC5)cc4n3)[nH]n2)c1` [Compound 33], the IC50 came out at 59 nM. As for `O=C(NCC1COC1)c1cc2nc(-n3cc(-c4ccccc4)cn3)nc(N3CCOCC3)c2o1` [Compound 164, 4-morpholino-N-(oxetan-3-ylmethyl)-2-(4-phenyipyrazol-1-yl)furo[3,2-d]pyrimidine-6-carboxamide], the figure is 162 nM. As for `c1ccc(-c2ccn(-c3nc(N4CCOCC4)c4oc(-c5ccncc5)cc4n3)n2)cc1` [Compound 158, 4-morpholino-2-(3-phenylpyrazol-1-yl)-6-(4-pyridyl)furo[3,2-d]pyrimidine], the figure is 160 nM.
